Our source for the IC50 values is patent US20080214533A1, “Cyclic Iminocarbamates And Their Use” (BAYER HEALTHCARE AG, priority 2004, published 2008).

Each structure is given as a SMILES string.

The target in this assay is human factor Xa (FXa) (Homo sapiens, UniProt P00742). Briefly: Determination of the factor Xa inhibition (chromogenic substrate). In kind it is biochemical. The following applies: chromogenic substrate Pefachrome FXa, 25° C., extinction at 405 nm. The protocol: The enzymatic activity of human factor Xa (FXa) is measured using the conversion of a chromogenic substrate specific for FXa. Factor Xa cleaves p-nitroaniline from the chromogenic substrate. The determinations are carried out in microtitre plates as follows:
The test substances, in various concentrations, are dissolved in DMSO and incubated for 10 minutes at 25° C. with human FXa ([…] dissolved in 50 mmol/l of Tris buffer [C,C,C-tris(hydroxymethyl)aminomethane], 150 mmol/l of NaCl, 0.1% BSA [bovine serum albumin], pH=8.3). Pure DMSO is used as control. The chromogenic substrate (150 μmol/l Pefachrome® FXa from Pentapharm) is then added. After an incubation time of 20 minutes at 25° C., the extinction at 405 nm is determined.

human factor Xa (FXa), sequence (P00742 235-488 limits assumed): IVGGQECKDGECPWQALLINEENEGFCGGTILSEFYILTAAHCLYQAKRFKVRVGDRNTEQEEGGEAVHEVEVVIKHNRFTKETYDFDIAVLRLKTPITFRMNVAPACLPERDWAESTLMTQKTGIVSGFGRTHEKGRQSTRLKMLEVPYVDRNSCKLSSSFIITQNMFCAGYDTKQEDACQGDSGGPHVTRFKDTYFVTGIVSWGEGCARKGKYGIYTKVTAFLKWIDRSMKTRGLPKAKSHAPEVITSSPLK
human factor Xa (FXa), sequence (P00742 41-179 partner limits assumed): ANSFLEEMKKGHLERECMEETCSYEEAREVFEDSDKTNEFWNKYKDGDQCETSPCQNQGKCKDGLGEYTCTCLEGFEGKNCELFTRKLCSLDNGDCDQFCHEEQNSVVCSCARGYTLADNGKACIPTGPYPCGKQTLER

On to `N=C1OCCN1c1ccc(NC(=O)c2nccnc2C(=O)Nc2ccc(Cl)cn2)cc1` [Example 1, N-(5-Chloropyridin-2-yl)-N′-[4-(2-imino-1,3-oxazolidin-3-yl)phenyl]pyrazine-2,3-dicarboxamide methanesulphonate], for which the concentration for half-maximal inhibition (IC50) came out at 0.64 nM.

Turning to `Cc1nc(C(=O)Nc2ccc(N3CCOC3=N)cc2)c(C(=O)Nc2ccc(Cl)cn2)s1` [Example 13, N^5-(5-Chloropyridin-2-yl)-N^4-[4-(2-imino-1,3-oxazolidin-3-yl)phenyl]-2-methyl-1,3-thiazole-4,5-dicarboxamide methanesulphonate], half-maximal inhibition (IC50) was put at 4.4 nM. Next, `N=C1OCCCN1c1ccc(NC(=O)c2nccnc2C(=O)Nc2ccc(Cl)cn2)cc1` [Example 5, N-(5-Chloropyridin-2-yl)-N′-[4-(2-imino-1,3-oxazinan-3-yl)phenyl]pyrazine-2,3-dicarboxamide methanesulphonate]: 2.6 nM; `Cc1nc(C(=O)Nc2ccc(Cl)cn2)c(C(=O)Nc2ccc(N3CCOC3=N)cc2)s1` [Example 12, N^4-(5-Chloropyridin-2-yl)-N^5-[4-(2-imino-1,3-oxazolidin-3-yl)phenyl]-2-methyl-1,3-thiazole-4,5-dicarboxamide methanesulphonate]: 0.3 nM.

In general, IC50 refers to the point on the concentration scale where inhibition reaches its midpoint. Read a high IC50 as weaker potency.
